ChEMBL document CHEMBL2380196, “New anticancer active and selective phenylene-bisbenzothiazoles: synthesis, antiproliferative evaluation and DNA binding” (Eur J Med Chem, 2013)
Activity calls are given as the source filed them. The calls are words filed in the database; no cut-off is given here.

Experiments:
[1] = test system: DNA; assay: Binding affinity to calf thymus DNA assessed as change in melting temperature at 0.5 drug/DNA ratio by spectrophotometer analysis; assay type: nucleic-acid assay; conditions: Bos taurus
[2] = test system: HeLa; assay: Antiproliferative activity against human HeLa cells after 72 hrs by MTT assay; assay type: functional, cell-based; conditions: for CC50: read-out: LC50 (the source's name)
[3] = test system: MIA PaCa-2; assay: Antiproliferative activity against human MIAPaCa2 cells after 72 hrs by MTT assay; assay type: functional, cell-based; conditions: MIA PaCa-2, 72 h; for CC50: read-out: LC50 (the source's name)
[4] = (§1) Antiproliferative activity against human WI38 cells after 72 hrs by MTT assay; assay type: cell-based, WI-38; conditions: human, WI-38 cells; read-out: LC50
[5] = test system: WI-38; assay: as §1; assay type: cell-based; conditions: Homo sapiens, WI-38, 72 h
[6] = test system: SK-BR-3; assay: Antiproliferative activity against human SKBR3 cells after 72 hrs by MTT assay; assay type: functional, cell-based; conditions: SK-BR-3, 72 h; for CC50: read-out: LC50 (the source's name)
[7] = test system: DNA; assay: Binding affinity to calf thymus DNA assessed as hypochromic effect at 20 uM by UV/Vis spectra analysis; assay type: nucleic-acid assay; conditions: Bos taurus
[8] = test system: MCF7; assay: Antiproliferative activity against human MCF7 cells after 72 hrs by MTT assay; assay type: functional, cell-based; conditions: MCF7, 72 h; for CC50: read-out: LC50 (the source's name)
[9] = test system: DNA; assay: Binding affinity to calf thymus DNA at 50 uM by Circular dichroism spectra analysis; assay type: nucleic-acid assay; conditions: Bos taurus
[10] = test system: SW-620; assay: Antiproliferative activity against human SW620 cells after 72 hrs by MTT assay; assay type: functional, cell-based; conditions: SW-620, 72 h; for CC50: read-out: LC50 (the source's name)
[11] = biological target: T1, DNA topoisomerase 1 (Homo sapiens) (UniProt P11387); assay: Inhibition of human topoisomerase 1-mediated supercoiled pUC19 DNA relaxation at 1 to 50 uM after 45 mins by agarose gel electrophoresis
T1 sequence (whole entry): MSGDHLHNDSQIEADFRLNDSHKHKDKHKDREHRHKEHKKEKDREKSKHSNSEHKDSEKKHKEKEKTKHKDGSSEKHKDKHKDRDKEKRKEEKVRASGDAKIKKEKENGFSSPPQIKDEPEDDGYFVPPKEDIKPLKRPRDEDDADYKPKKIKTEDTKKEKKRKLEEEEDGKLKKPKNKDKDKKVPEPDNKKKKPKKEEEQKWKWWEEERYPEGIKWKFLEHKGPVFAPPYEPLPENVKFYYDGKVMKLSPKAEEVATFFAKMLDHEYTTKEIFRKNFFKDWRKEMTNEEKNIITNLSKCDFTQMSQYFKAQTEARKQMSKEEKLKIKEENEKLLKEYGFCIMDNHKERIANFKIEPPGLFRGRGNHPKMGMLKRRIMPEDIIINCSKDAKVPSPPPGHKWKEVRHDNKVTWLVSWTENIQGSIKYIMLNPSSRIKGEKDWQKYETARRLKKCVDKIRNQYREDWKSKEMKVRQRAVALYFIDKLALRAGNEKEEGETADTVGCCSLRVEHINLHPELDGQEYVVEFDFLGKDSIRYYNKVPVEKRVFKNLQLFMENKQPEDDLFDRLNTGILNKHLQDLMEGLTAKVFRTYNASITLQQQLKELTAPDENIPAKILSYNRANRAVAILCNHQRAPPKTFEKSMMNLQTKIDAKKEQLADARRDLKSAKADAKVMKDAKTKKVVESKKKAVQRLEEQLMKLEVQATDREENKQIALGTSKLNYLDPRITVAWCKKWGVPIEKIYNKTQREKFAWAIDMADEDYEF

[12] = biological target: DNA topoisomerase 2-alpha (Homo sapiens) (UniProt P11388); assay: Inhibition of human topoisomerase 2-mediated supercoiled pUC19 DNA relaxation assessed as formation of open circle form after 45 mins using ethidium bromide staining by agarose gel electrophoresis
Sequence of DNA topoisomerase 2-alpha (Homo sapiens) (P11388 whole entry): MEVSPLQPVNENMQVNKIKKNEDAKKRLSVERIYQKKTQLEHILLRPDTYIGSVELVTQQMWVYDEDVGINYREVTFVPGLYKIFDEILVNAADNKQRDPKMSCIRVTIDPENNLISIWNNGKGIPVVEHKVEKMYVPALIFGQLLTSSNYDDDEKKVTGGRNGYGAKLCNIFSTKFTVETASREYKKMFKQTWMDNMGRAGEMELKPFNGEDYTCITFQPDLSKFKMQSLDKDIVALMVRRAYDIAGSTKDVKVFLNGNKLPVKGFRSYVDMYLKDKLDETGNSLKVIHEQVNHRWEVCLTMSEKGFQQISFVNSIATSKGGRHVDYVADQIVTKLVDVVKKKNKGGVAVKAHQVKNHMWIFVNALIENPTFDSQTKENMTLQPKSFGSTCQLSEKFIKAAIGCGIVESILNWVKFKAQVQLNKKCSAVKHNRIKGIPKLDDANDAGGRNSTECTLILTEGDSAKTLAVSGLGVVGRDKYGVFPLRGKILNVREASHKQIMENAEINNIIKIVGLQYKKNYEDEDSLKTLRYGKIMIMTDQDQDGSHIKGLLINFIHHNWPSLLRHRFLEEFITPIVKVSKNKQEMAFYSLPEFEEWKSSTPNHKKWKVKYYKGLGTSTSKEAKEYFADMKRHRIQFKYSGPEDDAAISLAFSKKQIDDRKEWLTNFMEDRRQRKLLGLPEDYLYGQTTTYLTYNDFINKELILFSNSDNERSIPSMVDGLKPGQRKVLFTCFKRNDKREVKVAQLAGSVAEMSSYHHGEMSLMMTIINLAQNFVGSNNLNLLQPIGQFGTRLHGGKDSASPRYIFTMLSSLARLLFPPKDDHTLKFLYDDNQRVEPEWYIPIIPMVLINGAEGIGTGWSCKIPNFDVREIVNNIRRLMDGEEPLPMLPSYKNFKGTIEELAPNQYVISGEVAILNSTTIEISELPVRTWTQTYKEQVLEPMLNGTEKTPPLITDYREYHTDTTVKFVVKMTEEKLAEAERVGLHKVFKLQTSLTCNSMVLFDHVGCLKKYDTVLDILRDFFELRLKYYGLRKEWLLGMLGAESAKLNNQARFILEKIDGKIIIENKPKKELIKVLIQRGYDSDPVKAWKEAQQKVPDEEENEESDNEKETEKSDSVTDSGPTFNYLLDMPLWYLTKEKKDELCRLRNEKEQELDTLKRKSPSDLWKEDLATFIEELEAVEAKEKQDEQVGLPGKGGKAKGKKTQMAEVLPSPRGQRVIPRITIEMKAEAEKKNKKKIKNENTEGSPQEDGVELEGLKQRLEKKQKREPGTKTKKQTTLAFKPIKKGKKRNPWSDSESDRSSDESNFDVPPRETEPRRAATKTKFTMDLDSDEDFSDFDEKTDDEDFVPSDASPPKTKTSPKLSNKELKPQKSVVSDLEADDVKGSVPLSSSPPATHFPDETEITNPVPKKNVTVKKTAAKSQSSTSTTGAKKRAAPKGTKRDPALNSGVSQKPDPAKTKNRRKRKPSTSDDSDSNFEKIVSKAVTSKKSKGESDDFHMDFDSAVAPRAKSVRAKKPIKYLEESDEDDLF

[13] = biological target: T1, DNA topoisomerase 1 (Homo sapiens); assay: Inhibition of human topoisomerase 1-mediated supercoiled pUC19 DNA relaxation assessed as formation of open circle form after 45 mins using ethidium bromide staining by agarose gel electrophoresis
[14] = test system: DNA; assay: Binding affinity to calf thymus DNA assessed as change in melting temperature at 0.25 drug/DNA ratio by spectrophotometer analysis; assay type: nucleic-acid assay; conditions: Bos taurus

| SMILES | ΔTm [1] [°C] | IC50 [2] [µM] | CC50 [2] [µM] | IC50 [3] [µM] | CC50 [3] [µM] | CC50 at 72 h [4] [µM] | IC50 [5] [µM] | IC50 [6] [µM] | CC50 [6] [µM] | Activity [7] | IC50 [8] [µM] | CC50 [8] [µM] | Activity [9] | IC50 [10] [µM] | CC50 [10] [µM] | inhibition [11] | inhibition [12] | inhibition [13] | ΔTm [14] [°C] |
| --- | --- | --- | --- | --- | --- | --- | --- | --- | --- | --- | --- | --- | --- | --- | --- | --- | --- | --- | --- |
| N=C(N)c1ccc2nc(-c3ccccc3-c3nc4ccc(C(=N)N)cc4s3)sc2c1 | 9.8 | 63.6 | > 100 | 44.8 | > 100 | > 100 | 86.4 | 86.6 | > 100 | Active | 30.9 | > 100 | Active | > 100 | > 100 |  |  |  |  |
| c1ccc(-c2nc3ccc(C4=NCCN4)cc3s2)c(-c2nc3ccc(C4=NCCN4)cc3s2)c1 | 16.8 | 26.8 | 76.4 | 14.6 | 72.9 | 74.3 | 8.99 | 1.86 | 67.9 | Active | 10.1 | 71.4 | Active | 24.7 | 81.3 | Active |  |  |  |
| N=C(N)c1ccc2nc(-c3cccc(-c4nc5ccc(C(=N)N)cc5s4)c3)sc2c1 |  | > 100 | > 100 | > 100 | > 100 | 65.4 | 0.99 | 83.2 | > 100 | Active | 5.34 | > 100 | Active | 6.01 | > 100 |  | Active | Active | 13.7 |
| N=C(N)c1ccc2nc(-c3ccc(-c4nc5ccc(C(=N)N)cc5s4)cc3)sc2c1 | 3 | 9.6 | > 100 | 20.4 | > 100 | > 100 | 41.9 | 8.55 | > 100 | Active | 9.01 | > 100 | inactive | > 100 | > 100 |  | Active | Active |  |
